The source of these data is publication doi:10.1101/2022.09.09.507370v4 (biorxiv, 2022).

Among the test systems are Dyn3-His6; Dyn1-His6; Dyn2-His6.
What all share (type): biochemical
Conditions in all cases: PS-liposome-stimulated (5.0 μM PS-liposomes), 20 nM enzyme, GTP, pH 7.4

SMILES strings stand for the structures.

Usually IC50 stands for the point on the concentration scale where inhibition reaches its midpoint. A high value points to a need for much substance.

Turning to `CCCCCCCCCCCCCC[N+](C)(C)C` [MiTMAB], the IC50 with Dyn3-His6 was 7.8 ± 3 µM; in the assay with Dyn1-His6, 8.1 ± 3.7 µM; with Dyn2-His6, 9.2 ± 2.5 µM.
